pIC50: −log10 of the molar value.

The subject of the experiment is LTB4 production in fresh human whole blood. As to the kind of experiment: FLAP Whole Blood Assay (Test B), inhibition of LTB4 production. It counts as cell-based. As to conditions: method B: 4 h incubation at 37° C., calcium ionophore A23187 stimulation. As for the experimental part:
FLAP Whole Blood Assay (Test B)
Compounds were tested for the inhibition of LTB4 production in fresh human whole blood obtained by venapuncture using heparin to prevent clotting. 1.5 μL compounds or DMSO carrier were dispensed into the wells of a 96-well deep-well plate in 3-fold dilution series. 500 μL heparnised whole blood was then added followed by incubation at 37° C. for 30 min (method A) or 4 h (method B). 100 μL blood was subsequently transferred in triplicate to pre-dispensed 0.5 μL 2 mM calcium ionophore (calcimycin; A23187) in a second 96-well plate. Following incubation at 37° C. for 20 min, the assays were stopped by adding 10 μL of stop solution (100 mM EGTA, pH 7.4) and the plate was transferred to ice. The plate was centrifuged at 3000 rpm at 4° C. for 10 min and 10 μL plasma was transferred to a fresh 96 well plate containing 90 μL pre-dispensed EIA assay buffer (0.1 M phosphate buffer+0.1% BSA). LTB4 was then measured using reagents from a commercial EIA (Cayman Chemicals). […] Inhibition of LTB4 production was defined as the LTB4 level in the presence of a given concentration of test compound expressed as a % of the LTB4 level in the presence of DMSO. IC50 values were determined by plotting % inhibition versus log compound concentration and using a one site dose response model. […]

Consider `Cc1cc(-c2ccc(C(=O)[C@@H]3CCCC[C@H]3C(=O)Nc3cnn4c3C(=O)NCC4)cc2)[nH]n1` [Compound (I), (1R,2R)-2-[4-(3-methyl-1H-pyrazol-5-yl)benzoyl]-N-(4-oxo-4,5,6,7-tetrahydropyrazolo[1,5-a]pyrazin-3-yl)cyclohexanecarboxamide], for which the pIC50 (commonly the negative decadic logarithm of the IC50, by convention in mol/L) was 7.40.

The values above are taken from US10689387B2, “Crystalline form of (1R,2R)-2-[4-(3-methyl-1H-pyrazol-5-yl)benzoyl]-N-(4-oxo-4,5,6,7-tetrahydropyrazolo[1,5-A]pyrazin-3-yl)cyclohexanecarboxamide” (AstraZeneca AB, priority 2016, dated 2020).
